Measured values taken from the NIST ThermoML archive (doi:10.1021/je049571n).
Numbers after ± are expanded uncertainties.

What was measured:
[1] = refractive index (Na D-line) (dimensionless); conditions: 101.33 kPa, Liquid, Standard Abbe refractometry
[2] = Liquid; for mass density: 101.33 kPa

Compound: CC(=O)O [acetic acid]
- refractive index ([1]; 293.2 K): 1.3719 ± 0.0012
- mass density ([2]; 298.2 K): 1047.22 ± 0.28 kg/m3
- Normal boiling temperature [2]: 118.1 ± 0.2 °C

Compound: COC(=O)CCCC(=O)OC [dimethyl pentanedioate]
- refractive index ([1]; 298.2 K): 1.4242 ± 0.0012
- mass density ([2]; 293.2 K): 1087.74 ± 0.65 kg/m3
- Normal boiling temperature [2]: 214.1 ± 0.2 °C
